Patent US20220402925A1, “COMPOUNDS AND METHODS FOR THE TREATMENT OF CYSTIC FIBROSIS” (Flatley Discovery Lab, LLC, priority 2019, published 2022)

Each compound was assayed against T1, F508del CFTR (Homo sapiens, UniProt P13569, DEL508-508) (assay: Equivalent current assay in primary CF airway epithelial cells (Corrector Activity, NAUC normalized to 3 μM VX809)). Conditions: NAUC as % of positive control (VX-809).
T1 construct: Primary CF airway epithelial cells were obtained from the UNC Cystic Fibrosis Tissue Procurement and Cell Culture Core; host or cells: primary CF airway epithelial cells
T1 sequence (P13569 with tags, fused parts or gaps DEL508-508): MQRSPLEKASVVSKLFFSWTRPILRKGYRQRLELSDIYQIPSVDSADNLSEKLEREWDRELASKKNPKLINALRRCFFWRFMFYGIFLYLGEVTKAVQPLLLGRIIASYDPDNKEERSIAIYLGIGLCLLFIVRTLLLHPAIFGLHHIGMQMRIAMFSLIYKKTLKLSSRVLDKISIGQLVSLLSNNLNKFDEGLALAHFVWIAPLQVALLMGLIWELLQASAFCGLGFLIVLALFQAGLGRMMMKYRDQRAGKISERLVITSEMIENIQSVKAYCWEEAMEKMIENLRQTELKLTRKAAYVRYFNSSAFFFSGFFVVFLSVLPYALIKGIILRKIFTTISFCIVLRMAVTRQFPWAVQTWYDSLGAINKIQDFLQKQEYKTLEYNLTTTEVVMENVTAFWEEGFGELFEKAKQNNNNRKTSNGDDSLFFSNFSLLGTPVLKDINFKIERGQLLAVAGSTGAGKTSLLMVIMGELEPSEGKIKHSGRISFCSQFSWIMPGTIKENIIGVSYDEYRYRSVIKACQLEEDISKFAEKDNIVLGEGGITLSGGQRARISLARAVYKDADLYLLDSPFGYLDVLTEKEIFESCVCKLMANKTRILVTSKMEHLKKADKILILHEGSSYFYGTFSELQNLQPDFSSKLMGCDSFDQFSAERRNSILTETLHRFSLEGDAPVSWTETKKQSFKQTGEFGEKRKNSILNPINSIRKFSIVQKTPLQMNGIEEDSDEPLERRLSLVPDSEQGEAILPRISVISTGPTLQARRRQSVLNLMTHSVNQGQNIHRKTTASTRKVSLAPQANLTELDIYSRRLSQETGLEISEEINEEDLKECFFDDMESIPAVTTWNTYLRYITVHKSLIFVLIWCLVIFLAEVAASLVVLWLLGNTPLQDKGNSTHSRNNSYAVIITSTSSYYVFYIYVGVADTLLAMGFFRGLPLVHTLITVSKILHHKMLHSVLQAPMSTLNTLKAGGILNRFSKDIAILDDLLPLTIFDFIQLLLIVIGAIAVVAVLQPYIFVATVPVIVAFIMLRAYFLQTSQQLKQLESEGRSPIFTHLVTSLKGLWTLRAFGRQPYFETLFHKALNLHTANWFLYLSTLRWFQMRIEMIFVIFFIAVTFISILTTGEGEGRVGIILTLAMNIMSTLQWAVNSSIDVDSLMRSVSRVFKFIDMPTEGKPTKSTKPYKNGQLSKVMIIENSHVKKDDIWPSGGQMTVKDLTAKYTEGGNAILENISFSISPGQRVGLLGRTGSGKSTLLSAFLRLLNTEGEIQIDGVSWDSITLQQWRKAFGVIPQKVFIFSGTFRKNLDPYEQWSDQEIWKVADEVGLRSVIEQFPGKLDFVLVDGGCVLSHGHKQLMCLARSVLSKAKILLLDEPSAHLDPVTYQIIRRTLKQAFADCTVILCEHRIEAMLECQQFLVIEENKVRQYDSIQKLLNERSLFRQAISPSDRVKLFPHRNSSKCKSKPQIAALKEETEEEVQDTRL
Type: cell-based
In short: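 Differentiated primary CF airway cells treated basolaterally 24 h at 37° C with compound (0.1% DMSO). Equivalent current recorded after 5 μM benzamil, stimulation with 10 μM forskolin plus 1 μM VX-770 or 3 μM FDL176, and block by 20 μM CFTR-172; vehicle-subtracted AUC normalized to 3 μM VX809; EC50 from sigmoid fit, Hill slope 1.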

Structure (SMILES)	Corr Activity (NAUC)
CCN(C(=O)Cn1nc(-c2cc(C#N)cc(OC)c2)c2oc(C3CC3)cc2c1=O)c1ccc2c(c1)OC(F)(F)O2 [Example 226]	+++ (NAUC>70% of positive control)
CCN(C(=O)Cn1nc(-c2cc(Cl)cc(OC)c2)c2oc(C3CC3)cc2c1=O)c1ccc2c(c1)OC(F)(F)O2 [Example 227]	+++ (NAUC>70% of positive control)
CCN(C(=O)Cn1nc(-c2cc(F)cc(OC)c2)c2oc(C3CC3)cc2c1=O)c1ccc2c(c1)OC(F)(F)O2 [Example 228]	+++ (NAUC>70% of positive control)
CCN(C(=O)Cn1nc(-c2cccc(F)c2)c2oc(C3CC3)cc2c1=O)c1ccc2c(c1)OC(F)(F)O2 [Example 229]	+++ (NAUC>70% of positive control)
CCN(C(=O)Cn1nc(-c2cccc(Cl)c2)c2oc(C3CC3)cc2c1=O)c1ccc2c(c1)OC(F)(F)O2 [Example 230]	+++ (NAUC>70% of positive control)
CCN(C(=O)Cn1nc(-c2cccc(C#N)c2)c2oc(C3CC3)cc2c1=O)c1ccc2c(c1)OC(F)(F)O2 [Example 231]	+++ (NAUC>70% of positive control)
Cc1nc2ccc(N(C)C(=O)Cn3nc(-c4cccc(C#N)c4)c4oc(C5CCC5)cc4c3=O)cc2o1 [Example 232]	++ (NAUC 70-40% of positive control)
CN(C(=O)Cn1nc(-c2cccc(C#N)c2)c2oc(C3CCC3)cc2c1=O)c1ccc2c(c1)OC(F)(F)O2 [Example 233]	++ (NAUC 70-40% of positive control)
CCN(C(=O)Cn1nc(-c2cc(Cl)cc(Cl)c2)c2oc(C3CCC3)cc2c1=O)c1ccc2c(c1)OC(F)(F)O2 [Example 234]	++ (NAUC 70-40% of positive control)
CCN(C(=O)Cn1nc(-c2cc(F)cc(F)c2)c2oc(C3CCC3)cc2c1=O)c1ccc2c(c1)OC(F)(F)O2 [Example 235]	++ (NAUC 70-40% of positive control)
CCN(C(=O)Cn1nc(-c2cc(F)cc(Cl)c2)c2oc(C3CCC3)cc2c1=O)c1ccc2c(c1)OC(F)(F)O2 [Example 236]	+++ (NAUC>70% of positive control)
CCN(C(=O)Cn1nc(-c2cc(Cl)cc(C#N)c2)c2oc(C3CCC3)cc2c1=O)c1ccc2c(c1)OC(F)(F)O2 [Example 237]	++ (NAUC 70-40% of positive control)
CCN(C(=O)Cn1nc(-c2cc(F)cc(C#N)c2)c2oc(C3CCC3)cc2c1=O)c1ccc2c(c1)OC(F)(F)O2 [Example 238]	++ (NAUC 70-40% of positive control)
CCN(C(=O)Cn1nc(-c2cc(C#N)cc(OC)c2)c2oc(C3CCC3)cc2c1=O)c1ccc2c(c1)OC(F)(F)O2 [Example 239]	+ (NAUC<40% of positive control)
CCN(C(=O)Cn1nc(-c2cc(Cl)cc(OC)c2)c2oc(C3CCC3)cc2c1=O)c1ccc2c(c1)OC(F)(F)O2 [Example 240]	+ (NAUC<40% of positive control)
CCN(C(=O)Cn1nc(-c2cc(F)cc(OC)c2)c2oc(C3CCC3)cc2c1=O)c1ccc2c(c1)OC(F)(F)O2 [Example 241]	+++ (NAUC>70% of positive control)
CCN(C(=O)Cn1nc(-c2cc(F)cc(C#N)c2)c2[nH]cnc2c1=O)c1ccc2c(c1)OC(F)(F)O2 [Example 242]	+++ (NAUC>70% of positive control)
CN(C(=O)Cn1nc(-c2cc(Cl)cc(C#N)c2)c2[nH]cnc2c1=O)c1ccc2c(c1)OC(F)(F)O2 [Example 243]	+++ (NAUC>70% of positive control)
CCN(C(=O)Cn1nc(-c2cc(Cl)cc(C#N)c2)c2[nH]cnc2c1=O)c1ccc2c(c1)OC(F)(F)O2 [Example 244]	+++ (NAUC>70% of positive control)
CCN(C(=O)Cn1nc(-c2cc(C#N)cc(C(C)(C)C)c2)c2[nH]cnc2c1=O)c1ccc2c(c1)OC(F)(F)O2 [Example 245]	+++ (NAUC>70% of positive control)
CCN(C(=O)Cn1nc(-c2cc(C)cc(C#N)c2)c2[nH]cnc2c1=O)c1ccc2c(c1)OC(F)(F)O2 [Example 246]	+++ (NAUC>70% of positive control)
Cc1cc(C#N)cc(-c2nn(CC(=O)N(C)c3ccc4c(c3)OC(F)(F)O4)c(=O)c3nc[nH]c23)c1 [Example 247]	+++ (NAUC>70% of positive control)
CCN(C(=O)Cn1nc(-c2cc(C)cc(C#N)c2)c2[nH]cnc2c1=O)c1cc2c(cc1C)OC(F)(F)O2 [Example 248]	+++ (NAUC>70% of positive control)
Cc1cc(C#N)cc(-c2nn(CC(=O)N(C)c3cc4c(cc3C)OC(F)(F)O4)c(=O)c3nc[nH]c23)c1 [Example 249]	+++ (NAUC>70% of positive control)
CCN(C(=O)Cn1nc(-c2cccc(C#N)c2)c2[nH]cnc2c1=O)c1ccc2c(c1F)OC(F)(F)O2 [Example 250]	+++ (NAUC>70% of positive control)

Structure (SMILES)	Corr Activity (NAUC)
CN(C(=O)Cn1nc(-c2cccc(C#N)c2)c2[nH]cnc2c1=O)c1ccc2c(c1F)OC(F)(F)O2 [Example 251]	+++ (NAUC>70% of positive control)
CCN(C(=O)Cn1nc(-c2cc(F)cc(CC#N)c2)c2[nH]cnc2c1=O)c1ccc2c(c1)OC(F)(F)O2 [Example 252]	++ (NAUC 70-40% of positive control)
CCN(C(=O)Cn1nc(-c2cc(Cl)cc(Cl)c2)c2[nH]cnc2c1=O)c1ccc2c(c1)OC(F)(F)O2 [Example 254]	+++ (NAUC>70% of positive control)
CCN(C(=O)Cn1nc(-c2cc(F)cc(Cl)c2)c2[nH]cnc2c1=O)c1ccc2c(c1)OC(F)(F)O2 [Example 255]	+++ (NAUC>70% of positive control)
CCN(C(=O)Cn1nc(-c2cc(Cl)cc(OC)c2)c2[nH]cnc2c1=O)c1ccc2c(c1)OC(F)(F)O2 [Example 257]	+++ (NAUC>70% of positive control)
CCN(C(=O)Cn1nc(-c2cc(F)cc(F)c2)c2[nH]cnc2c1=O)c1ccc2c(c1)OC(F)(F)O2 [Example 258]	+++ (NAUC>70% of positive control)
CCN(C(=O)Cn1nc(-c2cc(C(F)(F)F)cc(C(F)(F)F)c2)c2[nH]cnc2c1=O)c1ccc2c(c1)OC(F)(F)O2 [Example 260]	+ (NAUC<40% of positive control)
CCN(C(=O)Cn1nc(-c2cc(F)cc(OC)c2)c2[nH]cnc2c1=O)c1ccc2c(c1)OC(F)(F)O2 [Example 261]	+++ (NAUC>70% of positive control)
CCN(C(=O)Cn1nc(-c2cc(C)cc(F)c2)c2[nH]cnc2c1=O)c1ccc2c(c1)OC(F)(F)O2 [Example 262]	+++ (NAUC>70% of positive control)
CCN(C(=O)Cn1nc(-c2cc(F)cc(OCC(C)C)c2)c2[nH]cnc2c1=O)c1ccc2c(c1)OC(F)(F)O2 [Example 264]	++ (NAUC 70-40% of positive control)
CCN(C(=O)Cn1nc(-c2cc(OC)cc(C(F)(F)F)c2)c2[nH]cnc2c1=O)c1ccc2c(c1)OC(F)(F)O2 [Example 265]	+ (NAUC<40% of positive control)
CCN(C(=O)Cn1nc(-c2cc(Cl)cc(C(=O)N(C)C)c2)c2[nH]cnc2c1=O)c1ccc2c(c1)OC(F)(F)O2 [Example 267]	+ (NAUC<40% of positive control)
CCN(C(=O)Cn1nc(-c2cc(F)cc(C(F)(F)F)c2)c2[nH]cnc2c1=O)c1ccc2c(c1)OC(F)(F)O2 [Example 268]	++ (NAUC 70-40% of positive control)
CCN(C(=O)Cn1nc(-c2cc(C)cc(Cl)c2)c2[nH]cnc2c1=O)c1ccc2c(c1)OC(F)(F)O2 [Example 269]	+++ (NAUC>70% of positive control)
CCN(C(=O)Cn1nc(-c2cc(F)cc(OCC(F)(F)F)c2)c2[nH]cnc2c1=O)c1ccc2c(c1)OC(F)(F)O2 [Example 270]	++ (NAUC 70-40% of positive control)
CCN(C(=O)Cn1nc(-c2cc(SC)cc(C(F)(F)F)c2)c2[nH]cnc2c1=O)c1ccc2c(c1)OC(F)(F)O2 [Example 271]	+ (NAUC<40% of positive control)
CCN(C(=O)Cn1nc(-c2cc(C)cc(OC)c2)c2[nH]cnc2c1=O)c1ccc2c(c1)OC(F)(F)O2 [Example 272]	+ (NAUC<40% of positive control)
CCN(C(=O)Cn1nc(-c2cc(Cl)cc(OCc3ccccc3)c2)c2[nH]cnc2c1=O)c1ccc2c(c1)OC(F)(F)O2 [Example 273]	+++ (NAUC>70% of positive control)
CCN(C(=O)Cn1nc(-c2cc(OC)cc(OC(F)(F)F)c2)c2[nH]cnc2c1=O)c1ccc2c(c1)OC(F)(F)O2 [Example 274]	+ (NAUC<40% of positive control)
CCN(C(=O)Cn1nc(-c2cc(Cl)cc(OCCOC)c2)c2[nH]cnc2c1=O)c1ccc2c(c1)OC(F)(F)O2 [Example 276]	+++ (NAUC>70% of positive control)
CCN(C(=O)Cn1nc(-c2cc(Cl)cc(N3CCCC3)c2)c2[nH]cnc2c1=O)c1ccc2c(c1)OC(F)(F)O2 [Example 277]	+++ (NAUC>70% of positive control)
CCN(C(=O)Cn1nc(-c2cc(Cl)cc(C(F)(F)F)c2)c2[nH]cnc2c1=O)c1ccc2c(c1)OC(F)(F)O2 [Example 278]	+++ (NAUC>70% of positive control)
CCN(C(=O)Cn1nc(-c2cc(C)cc(C(F)(F)F)c2)c2[nH]cnc2c1=O)c1ccc2c(c1)OC(F)(F)O2 [Example 279]	++ (NAUC 70-40% of positive control)
CCN(C(=O)Cn1nc(-c2cc(C(C)(C)C)cc(C(C)(C)C)c2)c2[nH]cnc2c1=O)c1ccc2c(c1)OC(F)(F)O2 [Example 280]	+ (NAUC<40% of positive control)
